Values of other authors in US4280953A, “Glycosylated analogs of somatostatin” (The Salk Institute for Biological Studies, priority 1979, dated 1981).
Non-standard residues stand in square brackets, D forms with d.

System: secretion of insulin, glucogon pancreatic polypeptide and gastrin
Conditions: human subjects, subcutaneous administration

Substance: H-CFF[dW]KTFC-OH (cysteine pairing not given here)
- inhibitory activity on the secretion of insulin, glucogon pancreatic polypeptide and gastrin: prolonged inhibitory activity
